Test: Stability of cannabinoid compounds and Vitamin E components in Beverage 2 (AB Red) by LCMSMS
Format: physicochemical
Experimental: The stability of the plant-derived cannabinoid compounds and Vitamin E components of the beverage stored 8° C. and at room temperature (21-25° C.) were monitored, over a period of 570 days via Liquid Chromatography-tandem Mass Spectrometry [LCMSMS, AGilent 6590, C18, 3×50 mm, 2.7 m (Agilent InfinityLab Poroshell 120 EC-C18), Electrospray Ionization detector]. The LCMSMS was calibrated for 0-50 ng/ml cannabinoids with the same resin material used in the preparation of the concentrates. At each time period, 100 ml of beverage was diluted with 10 ml of methanol and injected into the LCMSMS for analysis.

SMILES: Cc1c(C)c2c(c(C)c1OC(=O)CCC(=O)O)CC[C@@](C)(CCC[C@H](C)CCC[C@H](C)CCCC(C)C)O2 [α-Tocopheryl succinate]
- Stability of Vitamin Es in AB Red (stored at 8° C., 0 days): 12.5 µg/mL
- Stability of Vitamin Es in AB Red (stored at 8° C., 1 days): 11.7 µg/mL
- Stability of Vitamin Es in AB Red (stored at 8° C., 2 days): 11.7 µg/mL
- Stability of Vitamin Es in AB Red (stored at 8° C., 3 days): 11.7 µg/mL
- Stability of Vitamin Es in AB Red (stored at 8° C., 5 days): 11.5 µg/mL
- Stability of Vitamin Es in AB Red (stored at 8° C., 8 days): 12.6 µg/mL
- Stability of Vitamin Es in AB Red (stored at 8° C., 9 days): 11.8 µg/mL
- Stability of Vitamin Es in AB Red (stored at 8° C., 10 days): 12.6 µg/mL
- Stability of Vitamin Es in AB Red (stored at 8° C., 11 days): 12.1 µg/mL
- Stability of Vitamin Es in AB Red (stored at 8° C., 12 days): 12.7 µg/mL
- Stability of Vitamin Es in AB Red (stored at 8° C., 15 days): 12.5 µg/mL
- Stability of Vitamin Es in AB Red (stored at 8° C., 16 days): 11.5 µg/mL
- Stability of Vitamin Es in AB Red (stored at 8° C., 17 days): 12.4 µg/mL
- Stability of Vitamin Es in AB Red (stored at 8° C., 18 days): 11.9 µg/mL
- Stability of Vitamin Es in AB Red (stored at 8° C., 19 days): 11.7 µg/mL
- Stability of Vitamin Es in AB Red (stored at 8° C., 22 days): 11.9 µg/mL
- Stability of Vitamin Es in AB Red (stored at 8° C., 23 days): 12.0 µg/mL
- Stability of Vitamin Es in AB Red (stored at 8° C., 24 days): 12.2 µg/mL
- Stability of Vitamin Es in AB Red (stored at 8° C., 25 days): 12.0 µg/mL
- Stability of Vitamin Es in AB Red (stored at 8° C., 26 days): 12.5 µg/mL
- Stability of Vitamin Es in AB Red (stored at 8° C., 29 days): 11.6 µg/mL
- Stability of Vitamin Es in AB Red (stored at 8° C., 30 days): 12.4 µg/mL
- Stability of Vitamin Es in AB Red (stored at 8° C., 60 days): 11.4 µg/mL
- Stability of Vitamin Es in AB Red (stored at 8° C., 90 days): 11.5 µg/mL
- Stability of Vitamin Es in AB Red (stored at 8° C., 120 days): 12.2 µg/mL
- Stability of Vitamin Es in AB Red (stored at 8° C., 150 days): 11.5 µg/mL
- Stability of Vitamin Es in AB Red (stored at 8° C., 180 days): 11.4 µg/mL
- Stability of Vitamin Es in AB Red (stored at 8° C., 210 days): 11.4 µg/mL
- Stability of Vitamin Es in AB Red (stored at 8° C., 240 days): 11.6 µg/mL
- Stability of Vitamin Es in AB Red (stored at 8° C., 270 days): 11.5 µg/mL
- Stability of Vitamin Es in AB Red (stored at 8° C., 300 days): 11.2 µg/mL
- Stability of Vitamin Es in AB Red (stored at 8° C., 330 days): 11.7 µg/mL
- Stability of Vitamin Es in AB Red (stored at 8° C., 360 days): 11.3 µg/mL
- Stability of Vitamin Es in AB Red (stored at 8° C., 390 days): 11.2 µg/mL
- Stability of Vitamin Es in AB Red (stored at 8° C., 420 days): 11.0 µg/mL
- Stability of Vitamin Es in AB Red (stored at 8° C., 450 days): 11.2 µg/mL
- Stability of Vitamin Es in AB Red (stored at 8° C., 480 days): 10.9 µg/mL
- Stability of Vitamin Es in AB Red (stored at 8° C., 510 days): 10.8 µg/mL
- Stability of Vitamin Es in AB Red (stored at 8° C., 540 days): 10.9 µg/mL
- Stability of Vitamin Es in AB Red (stored at 8° C., 570 days): 10.6 µg/mL
- Stability of Vitamin Es in AB Red (stored at 21-25° C., 0 days): 12.5 µg/mL
- Stability of Vitamin Es in AB Red (stored at 21-25° C., 1 days): 12.5 µg/mL
- Stability of Vitamin Es in AB Red (stored at 21-25° C., 2 days): 12.0 µg/mL
- Stability of Vitamin Es in AB Red (stored at 21-25° C., 3 days): 11.9 µg/mL
- Stability of Vitamin Es in AB Red (stored at 21-25° C., 5 days): 11.9 µg/mL
- Stability of Vitamin Es in AB Red (stored at 21-25° C., 8 days): 12.0 µg/mL
- Stability of Vitamin Es in AB Red (stored at 21-25° C., 9 days): 11.7 µg/mL
- Stability of Vitamin Es in AB Red (stored at 21-25° C., 10 days): 12.0 µg/mL
- Stability of Vitamin Es in AB Red (stored at 21-25° C., 11 days): 12.0 µg/mL
- Stability of Vitamin Es in AB Red (stored at 21-25° C., 12 days): 12.4 µg/mL
- Stability of Vitamin Es in AB Red (stored at 21-25° C., 15 days): 11.6 µg/mL
- Stability of Vitamin Es in AB Red (stored at 21-25° C., 16 days): 11.6 µg/mL
- Stability of Vitamin Es in AB Red (stored at 21-25° C., 17 days): 12.6 µg/mL
- Stability of Vitamin Es in AB Red (stored at 21-25° C., 18 days): 12.1 µg/mL
- Stability of Vitamin Es in AB Red (stored at 21-25° C., 19 days): 11.9 µg/mL
- Stability of Vitamin Es in AB Red (stored at 21-25° C., 22 days): 11.6 µg/mL
- Stability of Vitamin Es in AB Red (stored at 21-25° C., 23 days): 12.7 µg/mL
- Stability of Vitamin Es in AB Red (stored at 21-25° C., 24 days): 12.4 µg/mL
- Stability of Vitamin Es in AB Red (stored at 21-25° C., 25 days): 11.9 µg/mL
- Stability of Vitamin Es in AB Red (stored at 21-25° C., 26 days): 12.1 µg/mL
- Stability of Vitamin Es in AB Red (stored at 21-25° C., 29 days): 12.4 µg/mL
- Stability of Vitamin Es in AB Red (stored at 21-25° C., 30 days): 12.1 µg/mL
- Stability of Vitamin Es in AB Red (stored at 21-25° C., 60 days): 11.7 µg/mL
- Stability of Vitamin Es in AB Red (stored at 21-25° C., 90 days): 11.6 µg/mL
- Stability of Vitamin Es in AB Red (stored at 21-25° C., 120 days): 11.5 µg/mL
- Stability of Vitamin Es in AB Red (stored at 21-25° C., 150 days): 11.4 µg/mL
- Stability of Vitamin Es in AB Red (stored at 21-25° C., 180 days): 12.3 µg/mL
- Stability of Vitamin Es in AB Red (stored at 21-25° C., 210 days): 11.6 µg/mL
- Stability of Vitamin Es in AB Red (stored at 21-25° C., 240 days): 11.6 µg/mL
- Stability of Vitamin Es in AB Red (stored at 21-25° C., 270 days): 11.0 µg/mL
- Stability of Vitamin Es in AB Red (stored at 21-25° C., 300 days): 11.4 µg/mL
- Stability of Vitamin Es in AB Red (stored at 21-25° C., 330 days): 11.4 µg/mL
- Stability of Vitamin Es in AB Red (stored at 21-25° C., 360 days): 11.1 µg/mL
- Stability of Vitamin Es in AB Red (stored at 21-25° C., 390 days): 10.8 µg/mL
- Stability of Vitamin Es in AB Red (stored at 21-25° C., 420 days): 11.0 µg/mL
- Stability of Vitamin Es in AB Red (stored at 21-25° C., 450 days): 11.2 µg/mL
- Stability of Vitamin Es in AB Red (stored at 21-25° C., 480 days): 10.4 µg/mL
- Stability of Vitamin Es in AB Red (stored at 21-25° C., 510 days): 10.6 µg/mL
- Stability of Vitamin Es in AB Red (stored at 21-25° C., 540 days): 10.3 µg/mL
- Stability of Vitamin Es in AB Red (stored at 21-25° C., 570 days): 10.6 µg/mL

— patent publication US20260130395A1, “Water Dispersible Botanical Compositions” (Aquila Black Limited, priority 2021, published 2026)
